One may read the Ki as a measure of affinity in units of concentration, obtained from inhibition or displacement. A low value points to tighter binding.

The values below come from ChEMBL document CHEMBL1135367, “Evaluation of isotryptamine derivatives at 5-HT(2) serotonin receptors” (Bioorg Med Chem Lett, 2002).

For experiment [1], the target named is T1, 5-hydroxytryptamine receptor 2C (Homo sapiens, UniProt P28335).
T1 sequence (P28335 whole entry): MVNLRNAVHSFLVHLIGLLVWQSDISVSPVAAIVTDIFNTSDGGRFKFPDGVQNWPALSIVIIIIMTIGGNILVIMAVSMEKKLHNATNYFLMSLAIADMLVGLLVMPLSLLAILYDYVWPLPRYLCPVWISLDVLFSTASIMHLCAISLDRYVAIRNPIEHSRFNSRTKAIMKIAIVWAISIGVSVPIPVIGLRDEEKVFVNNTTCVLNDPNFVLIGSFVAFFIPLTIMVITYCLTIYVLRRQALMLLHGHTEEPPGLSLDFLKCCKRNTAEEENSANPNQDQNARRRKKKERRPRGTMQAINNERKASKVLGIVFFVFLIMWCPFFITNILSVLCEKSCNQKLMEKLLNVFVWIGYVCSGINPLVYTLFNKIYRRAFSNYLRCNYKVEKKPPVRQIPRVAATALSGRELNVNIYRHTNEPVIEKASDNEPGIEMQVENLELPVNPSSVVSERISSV
Put plainly: Binding affinity towards human 5-hydroxytryptamine 2C receptor.

Experiment [2] has as its target T2, 5-hydroxytryptamine receptor 2A (Homo sapiens, UniProt P28223). Put plainly: Tested for binding affinity towards 5-hydroxytryptamine 2A receptor.
Experiment [3] has as its target T2, 5-hydroxytryptamine receptor 2A. Put plainly: Displacement of [3H]DOB from human 5-hydroxytryptamine 2A receptor. On the technique in general: Loss of bound radioactivity is the signal in a displacement assay; it reports binding, not function.
In experiment [4] the target is Serotonin 2 receptors; 5-HT2a & 5-HT2c (Homo sapiens) (UniProt P28223+P28335). Put plainly: Relative affinity for human 5-HT2C and 5-HT2A receptors. Format: protein assay.
Serotonin 2 receptors; 5-HT2a & 5-HT2c (Homo sapiens), sequence (P28223 whole entry, looked up, one chain of several): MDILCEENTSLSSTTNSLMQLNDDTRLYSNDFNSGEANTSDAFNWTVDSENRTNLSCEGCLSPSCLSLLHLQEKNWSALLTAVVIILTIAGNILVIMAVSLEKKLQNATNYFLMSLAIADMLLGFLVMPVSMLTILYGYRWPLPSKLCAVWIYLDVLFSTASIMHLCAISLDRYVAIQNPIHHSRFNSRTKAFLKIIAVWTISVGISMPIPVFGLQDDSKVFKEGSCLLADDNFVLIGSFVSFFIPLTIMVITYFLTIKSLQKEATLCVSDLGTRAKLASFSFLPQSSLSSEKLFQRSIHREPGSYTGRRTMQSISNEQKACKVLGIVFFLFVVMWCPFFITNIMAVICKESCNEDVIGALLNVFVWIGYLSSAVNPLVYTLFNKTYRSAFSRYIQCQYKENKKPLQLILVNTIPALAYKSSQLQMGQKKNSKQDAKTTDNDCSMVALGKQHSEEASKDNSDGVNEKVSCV
Experiment [5] has as its target T2, 5-hydroxytryptamine receptor 2A. Put plainly: Displacement of [3H]ketanserin from human 5-hydroxytryptamine 2A receptor.
Experiment [6] has as its target T1, 5-hydroxytryptamine receptor 2C. The experiment can be described thus: Tested for binding affinity towards human 5-hydroxytryptamine 2C receptor using [3H]DOB as radioligand.
Experiment [7] has as its target T3, 5-hydroxytryptamine receptor 2A (Rattus norvegicus, UniProt P14842). The experiment can be described thus: Tested for binding affinity towards rat 5-hydroxytryptamine 2A receptor using [3H]DOB as radioligand.
Experiment [8] addresses T1, 5-hydroxytryptamine receptor 2C. The experiment can be described thus: Tested for binding affinity towards human 5-hydroxytryptamine 2C receptor using [3H]5-HT as radioligand.
Experiment [9] deals with T2, 5-hydroxytryptamine receptor 2A. Put plainly: Tested for binding affinity towards human 5-hydroxytryptamine 2A receptor using [3H]5-HT as radioligand.
Experiment [10] addresses T3, 5-hydroxytryptamine receptor 2A. Put plainly: Tested for binding affinity towards rat 5-hydroxytryptamine 2A receptor using [3H]ketanserin as radioligand.
The target in experiment [11] is T1, 5-hydroxytryptamine receptor 2C. The experiment can be described thus: Tested for binding affinity towards human 5-hydroxytryptamine 2C receptor using [3H]mesulergine as radioligand.
Experiment [12] deals with T2, 5-hydroxytryptamine receptor 2A. The experiment can be described thus: Tested for binding affinity towards human 5-hydroxytryptamine 2A receptor using [3H]DOB as radioligand.
Experiment [13] concerns the target T1, 5-hydroxytryptamine receptor 2C. Put plainly: Tested for binding affinity towards 5-HT2c receptor.

T2 sequence (P28223 whole entry): as the sequence (P28223 whole entry, looked up, one chain of several) above
T3 sequence (P14842 whole entry): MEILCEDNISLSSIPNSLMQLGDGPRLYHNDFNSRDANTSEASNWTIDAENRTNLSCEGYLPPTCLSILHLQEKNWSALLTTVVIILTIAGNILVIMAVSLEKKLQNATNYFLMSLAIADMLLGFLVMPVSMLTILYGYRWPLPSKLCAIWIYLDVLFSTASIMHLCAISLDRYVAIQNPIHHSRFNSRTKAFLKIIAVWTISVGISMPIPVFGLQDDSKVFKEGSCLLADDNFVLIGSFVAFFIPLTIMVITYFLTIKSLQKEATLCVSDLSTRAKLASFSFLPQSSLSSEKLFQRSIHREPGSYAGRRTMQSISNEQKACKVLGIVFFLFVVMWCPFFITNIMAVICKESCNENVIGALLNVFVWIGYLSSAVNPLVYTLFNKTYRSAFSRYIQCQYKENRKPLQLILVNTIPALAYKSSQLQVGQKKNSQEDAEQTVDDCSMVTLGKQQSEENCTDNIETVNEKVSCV

In the case of `CC(N)Cc1c[nH]c2ccc3ccccc3c12` (stereo not given), the inhibition constant Ki in experiment [1] was found to be 9 nM; in experiment [2], 3 nM.

With `COc1ccc2c(c1)cc1n2CCNC1`, the inhibitory constant (Ki) in [3] is 930 nM; in experiment [5], 5830 nM; in experiment [1], 9930 nM. The compound also yielded a Selectivity in experiment [4] of 10.7.

Turning to `COc1c2n(c3ccc(Cl)cc13)CCNC2`, the figures for the Ki in [3], in [5] and in experiment [1] were 60 nM, 130 nM and 330 nM, respectively. In addition, the Selectivity in experiment [4] was found to be 5.5.

Turning to `COc1ccc2cc3n(c2c1)CCNC3`, the Ki in experiment [3] turned out to be 1300 nM; in [5], 5190 nM; in [1] it was 5160 nM. The compound further registered a Selectivity in experiment [4] of 4.

For `CN(C)CCn1ccc2cc(F)c(F)cc21`, the values for the Ki in experiment [3], in experiment [5] and in experiment [1] were 230 nM, 640 nM and 300 nM, respectively. In experiment [4], this compound came in with a Selectivity of 1.3.

For `COc1ccc2c(ccn2CCN(C)C)c1`, the Ki in experiment [3], in experiment [5] and in [1] was over 10000 nM in each case.

As to `c1ccc2c(c1)nc1n2CCNC1`, the Ki in [3], in experiment [5] and in [1] was over 10000 nM in each case.

As to `CC(CN)n1ccc2ccc3ccccc3c21` (stereo not given), the Ki in [1] was over 10000 nM; in experiment [2], 4300 nM.

On to `C[C@H](N)Cn1ccc2cc(F)c(F)cc21`, for which the Ki in experiment [6] was 3.9 nM; in [7] it was 15 nM; in experiment [1], 85 nM; in experiment [8], 3.8 nM; in experiment [9], 12 nM; in experiment [10] it was 320 nM. Besides, the figures for the inhibition constant (Ki) in experiment [11] and in [12] were 85 nM and 39 nM, respectively. In experiment [4], this compound gave a Selectivity of 5.7.

Take `CN(C)CCn1ccc2ccccc21`: the inhibitory constant (Ki) was found to be 650 nM in experiment [3], 600 nM in experiment [5] and 720 nM in experiment [1]. Further, the Selectivity in experiment [4] was found to be 1.1.

For the compound `c1ccc2c(c1)cc1n2CCNC1`, the figures for the Ki in experiment [3], in [5] and in [1] were 635 nM, 1040 nM and 4780 nM, respectively. The compound also displayed a Selectivity in experiment [4] of 7.5.

On to `Clc1ccc2c(c1)cc1n2CCNC1`, for which the Ki in experiment [3] turned out to be 320 nM; in experiment [5] it was 1670 nM; in [1], 1460 nM. Further, in [4], the Selectivity stood at 4.6.

Take `COc1cccc2cc3n(c12)CCNC3`: the Ki stood at 300 nM in [3], 1000 nM in experiment [5] and 1990 nM in [1]. In addition, in experiment [4], the Selectivity was found to be 6.6.

`Clc1cccc2cc3n(c12)CCNC3`: the Ki in [3] is 330 nM; in experiment [5], 630 nM; in [1] it was 520 nM. Further, the Selectivity in experiment [4] amounted to 1.6.

In the case of `COc1ccc2ccn(CCN(C)C)c2c1`, the Ki was found to be 1040 nM in experiment [5] and 490 nM in experiment [1].

`Clc1ccc2cc3n(c2c1)CCNC3`: the inhibition constant Ki was 80 nM in [3], 58 nM in experiment [5] and 560 nM in experiment [1]. This compound also came in with a Selectivity in [4] of 7.

As to `CC(N)Cn1ccc2ccc3ccccc3c21` (stereo not given), the values for the Ki in [1] and in experiment [2] were 42 nM and 38 nM, respectively.

For `Cc1c2n(c3ccc(Cl)cc13)CCNC2`, the Ki in [5] was 1250 nM; in [13], 450 nM.
